# B1: IL-25: cytokine used to activate ILC2s in vitro and in vivo (protein, UniProt Q8VHH8 17-169, looked up)
# Interleukin-25: VSLRIQEGCSHLPSCCPSKEQEPPEEWLKWSSASVSPPEPLSHTHHAESCRASKDGPLNSRAISPWSYELDRDLNRVPQDLYHARCLCPHCVSLQTGSHMDPLGNSVPLYHNQTVFYRRPCHGEEGTHRRYCLERRLYRVSLACVCVRPRVMA
# Columns and labels:
# KLRG1+ ILC2s [1] = experiment: In vitro proliferation assay (CellTrace Violet, flow cytometry); type: cell-based, mouse; settings: IL-25 with α-CGRP plus adenylate cyclase inhibitor
# Method: (§1) Flow cytometry and cell sorting. Cells were washed and suspended in MACS buffer (pH 7.4; PBS plus 2% FCS and 2 mM EDTA). Nonspecific antibody binding was blocked with CD16/CD32 (2.4G2) antibody for 15 min on ice. Cells were then stained with antibody cocktails for 30 min at 4° C. Lineage-positive cells were excluded for analyzing ILCs by staining for CD3ε (145-2C11), CD5 (53-7.3), CD19 (6D5), CD11b (M1/70), CD8 (53-6.7), CD11c (N418), Gr-1 (RB6-8C5), TCRγδ (eBioGL3 (GL-3, GL3)) and TCRβ (H57-597). To analyze mast cells, lineage-positive cells were excluded by staining for CD3ε, CD5, CD19, CD11c and SiglecF (E50-2440). For surface staining, antibodies for KLRG1 (2F1), CD45 (30-F11), CD127 (A7R34), CCR6 (29-2L17), NKp46 (29A1.4), CD90.2 (53-2.1), FcεRI (Mar-1), IgD (11-26c.2a) and ST2 (DJ8) were used. For intracellular staining, cells were fixed and permeabilized using the Foxp3 transcription factor staining buffer set, followed by staining with anti-GATA-3 (TWAJ) or anti-RORγt (B2D) antibodies. Dead cells were excluded with 7-AAD or Fixable Viability Dye eFluor 780. Flow cytometry was performed on Cytoflex (Beckman Coulter) and analyzed with FlowJo software. Sorting was performed with the SH800S Cell Sorter (Sony Biotechnology).
# ILC2 culture. […]
# TDAG8 = target: T1, TDAG8 (Rattus norvegicus, UniProt A0A8I6AHC6); settings: in vivo; cited from earlier work
# T1 construct: host or cells: rat, in vivo (endogenous receptor)
# T1 sequence (A0A8I6AHC6 1-337): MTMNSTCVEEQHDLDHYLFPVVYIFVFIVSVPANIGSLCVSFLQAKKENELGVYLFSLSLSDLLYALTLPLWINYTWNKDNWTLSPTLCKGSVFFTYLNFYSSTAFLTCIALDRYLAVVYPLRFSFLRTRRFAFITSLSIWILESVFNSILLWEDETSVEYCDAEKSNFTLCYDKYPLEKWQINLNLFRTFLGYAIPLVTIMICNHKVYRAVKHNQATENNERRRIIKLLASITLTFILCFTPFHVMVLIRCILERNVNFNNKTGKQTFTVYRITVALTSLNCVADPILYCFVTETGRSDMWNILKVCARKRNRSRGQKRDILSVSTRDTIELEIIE
# TDAG8 (GPR65) = settings: cited from earlier work
# KLRG1+ ILC2s [2] = experiment: IL-25-induced in vivo ILC2 activation model; design: species or system mouse; settings: IL-25 administration alone
# Description: Intraperitoneal administration of α-CGRP impaired IL-25-induced expansion of KLRG1^+ ILC2s (FIGS. 5B and 12A), consistent with the in vitro results. Recent work has shown that intestinal KLRG1^+ ILC2s can migrate to mesenteric lymph nodes (mLNs) and other tissues during inflammation via sphingosine 1-phosphate (S1P)-mediated chemotaxis (Huang et al., 2018). To determine whether α-CGRP primarily impacts intestinal or mLN ILC2s, Applicants relied on the fact that intestinal GATA3^+ ILC2s are generally phenotypically KLRG1^+ST2^− (data not shown), whereas mLN ILC2s are mainly ST2^+ at steady state (FIG. 5C). IL-25 administration increased the frequency of both KLRG1^+ST2^− inflammatory ILC2s and ST2^+ ILC2s in mLNs (FIGS. 5C-E and 12B). […] Thus, α-CGRP preferentially regulates the response of intestinal KLRG1^+ST2^− ILC2s. […] Taken together, α-CGRP antagonized expansion of intestinal KLRG1^+ ILC2s in two different type 2 inflammatory models.
# To activate ILC2s in vivo, 200 ng of IL-25 was intraperitoneally injected into 7-10 weeks old mice daily for two days. 1 μg α-CGRP was injected together as noted.
# as §1
# Immunofluorescence staining and imaging. The small intestines were fixed in 2% PFA, embedded in O.C.T. Compound and sliced into 10 μm by frozen section. The slides were blocked with 0.1% Triton X-100, 2% FCS and donkey serum. […] The images were analyzed with ImageJ.
# intestinal KLRG1+ ILC2s = experiment: Bulk RNA-seq of intestinal KLRG1+ ILC2s stimulated in vitro; type: cell-based, mouse; settings: IL-25 alone in vitro
# Description: To determine if α-CGRP can directly trigger signaling in ILC2s and impact their transcriptional states under inflammatory conditions, Applicants performed bulk RNA-seq of KLRG1^+ ILC2s isolated from the small intestine and stimulated in vitro with IL-25 alone or together with α-CGRP. […] Thus, α-CGRP inhibits IL-25-induced proliferation and activation of intestinal KLRG1+ILC2s.
# The presence at homeostasis of α-CGRP receptors on ILC2s and α-CGRP's expression on ChAT^+ intestinal neurons led Applicants to hypothesize that it has an effect on ILC2s during homeostasis. To test this hypothesis, Applicants next measured the expression profiles of intestinal KLRG1^+ ILC2s stimulated in vitro by α-CGRP alone, and identified genes differentially expressed under this signal (FIG. 6D, Methods).
# ILC2 culture. Sort-purified intestinal KLRG1^+ ILC2s were incubated in RPMI supplemented with 10% FCS, 10 mM Hepes, 1 mM sodium pyruvate, 10% FBS, 80 μm 2-mercaptoethanol, 2 mM glutamine, 100 U/ml penicillin, […] streptomycin, 100 ng/ml IL-2 and 100 ng/ml IL-7 in 96-well round bottom plate at 37° C. and 5% CO2. If indicated, the culture was supplemented with 100 ng/ml IL-25. For the in vitro proliferation assay, cells from different mice were pooled and labeled with CellTrace Violet, and then cultured at 1,000-1,500 cells per well with 10 μg/ml α-CGRP for 60 hours. When indicated, 10 μM forskolin or 1 μM SQ 22, 536 in DMSO was supplied and cells were cultured for 40 hours. For bulk RNA-seq, cells from individual mice were stimulated at 200 cells per well with 0.4 μg/ml α-CGRP for 3 hours. For bulk ATAC-seq, cells were stimulated with 0.4 μg/ml α-CGRP for 2 hours.
# Bulk RNA-seq. 200 ILC2s from each condition were lysed in 10 ul TCL buffer plus 0.5% 2-Mercaptoethanol. Libraries were processed with SMART-Seq2 (Picelli et al., 2013) with at least three replicates per condition, and paired-end sequenced (75 bp×2) with a […] Nextseq 500 high output V2 kit.
# Reads were aligned to the mouse reference genome (NCBI 38, mm10) using Bowtie (Langmead et al., 2009) with default parameters, and expression abundances were estimated using RSEM software (Li and Dewey, 2011). The differential gene expression analysis was performed with edgeR (Robinson et al., 2010) with default parameters.
molecule,measurement,setting,value
"Nc1ncnc2c1ncn2C1CCCO1 (stereo not drawn) [SQ22, 536, reference compound]",α-CGRP inhibition of ILC2 proliferation,KLRG1+ ILC2s [1],partially rescues
"CN1N=C(SCc2ccc(Cl)cc2Cl)Sc2c1cnn(C)c2=O [BTB09089, 3-[(2,4-dichlorobenzyl)thio]-1,6-dimethyl-5,6-dihydro-1H-pyridazino[4,5-e][1,3,4]thiadiazin-5-one]",efficacy in ischemic stroke murine disease model,TDAG8,in vivo efficacy
same,TDAG8 activation in vitro,TDAG8 (GPR65),activate
B1,frequency of KLRG1+ST2− inflammatory ILC2s in mLNs,KLRG1+ ILC2s [2],increased
same,frequency of ST2+ ILC2s in mLNs,KLRG1+ ILC2s [2],increased
same,"activation phenotype (expression of type 2 cytokines Il13, Il5 and mitotic genes such as Myc)",intestinal KLRG1+ ILC2s,induced the expected activation phenotype

# Reference: patent US20220143148A1, “COMPOSITIONS AND METHODS FOR MODULATING CGRP SIGNALING TO REGULATE INTESTINAL INNATE LYMPHOID CELLS” (The Broad Institute, Inc., priority 2019, published 2022)
